Data: PubChem BioAssay AID1996
Values after ≈ are worked out from the molar mass of the structure shown.

details: buffer; pH 7.4; 200.0 µM

Row | Compound | solubility kinetic [µg/mL]
1 | O=C1CSC(c2ccc(F)c(F)c2)N1c1ccccc1F (stereo not drawn) | 38.3 (≈ 124 µM)
2 | O=C1CN(C(=O)COC(=O)c2ccc(Br)o2)c2ccccc2N1 | 9.5 (≈ 25.1 µM)
3 | Brc1ccc(-c2noc(-c3ccccc3)n2)o1 | < 0.3
4 | Cc1ccc([N+](=O)[O-])cc1NC(=O)C1CCCC1 | 9.4 (≈ 37.9 µM)
5 | N#Cc1ccc(CSc2nc(N)cc(N)n2)cc1 | 37.3 (≈ 145 µM)
6 | Cc1ccc(C2(CCNCc3ccco3)CCOC(C(C)C)C2)cc1 (stereo not drawn) | > 51.2
7 | COc1cccc2[nH]c(C(=O)NCC3CCCO3)cc12 (stereo not drawn) | > 41.1
8 | c1ccc(CNc2cncnc2)cc1 | 26.4 (≈ 143 µM)
9 | Cc1ccc(-n2c(/C=C/c3ccccn3)nc3ccccc3c2=O)cc1 | 0.6 (≈ 1.77 µM)
10 | CC(C)Sc1nc2c(c(=O)[nH]c(=O)n2C)n1Cc1ccccc1 | 2.8 (≈ 8.47 µM)
11 | COc1ccc(NC(=O)CSc2nc3nc(C)cc(C)c3c(=O)[nH]2)cc1OC | 6.5 (≈ 16.2 µM)
12 | CC1(C)OC(C)(C)/C(=C\c2ccc(OCC(N)=O)cc2)C1=O | 28 (≈ 92.3 µM)
13 | COC(=O)C(C)NC(=O)C12CC3CC(C1)CC(c1ccc(C)cc1)(C3)C2 (stereo not drawn) | 30.6 (≈ 86.1 µM)
14 | CCc1ccc(N2C(=O)C3C4C=CC(CC4)C3C2=O)cc1 (stereo not drawn) | 14.3 (≈ 50.8 µM)
15 | O=C1Nc2ccccc2SC1c1ccccc1 (stereo not drawn) | 1.7 (≈ 7.04 µM)
16 | Cc1cccc(N2CCN(C(=O)NCc3ccc(F)cc3)CC2)c1C | 3.2 (≈ 9.37 µM)
17 | O=C(Nc1cc(S(=O)(=O)N2CCOCC2)ccc1N1CCOCC1)c1c(F)cccc1Cl | 2.2 (≈ 4.55 µM)
18 | Cc1cn2c(nc1=O)OC1CC2OC1CO (stereo not drawn) | > 33.6
19 | CC(C)CCNc1nc(N)c([N+](=O)[O-])c(NC2CCCCC2)n1 | < 0.1
20 | OCC(O)CN1CCN(c2ccccc2)CC1 (stereo not drawn) | > 35.4
21 | Cc1ccc(C)c(S(=O)(=O)N2CCN(C(=O)c3cccnc3)CC2)c1 | 50.8 (≈ 141 µM)
22 | CC(=O)N1CC(=O)Nc2ccc(F)cc2C1c1ccccc1 (stereo not drawn) | > 44.7
23 | Cc1ccc(NC(=O)CCCC(=O)OC(C)C(=O)c2ccccc2)cc1 (stereo not drawn) | > 53

Row | Compound | solubility kinetic [µg/mL]
24 | O=c1c(NCCc2ccc(Cl)cc2)c(-c2ccccc2)c1=O | 2.6 (≈ 8.34 µM)
25 | COc1ccc(C(=S)N2CCN(c3cccc(Cl)c3)CC2)cc1 | 1.2 (≈ 3.46 µM)
26 | COc1cc2ccccc2cc1C(=O)N1CC(C)CC(C)C1 (stereo not drawn) | > 44.6
27 | CCc1ccc(N2C(=O)CC(N3CCN(c4ccccn4)CC3)C2=O)cc1 (stereo not drawn) | > 54.7
28 | CC1(C)C2CCC1(CS(=O)(=O)N1CCCC1C(=O)O)C(=O)C2 (stereo not drawn) | > 49.4
29 | CN1CCN(c2ccccc2NC(=O)c2cccc([N+](=O)[O-])c2)CC1 | > 51.1
30 | CC(=O)Nc1ccc(SCC(=O)Nc2ccc3c(c2)OCCO3)cc1 | > 53.8
31 | COc1ccc(CN(C)CC(=O)Nc2cccc(S(=O)(=O)N3CCCC3)c2)cc1F | 44 (≈ 101 µM)
32 | O=C(NC1CCCC1)c1cc(=O)[nH]c2ccccc12 | 33.6 (≈ 131 µM)
33 | CCOc1ccc(CNc2ccc3c(c2)ncn3C(C)(C)C)cc1 | 46.3 (≈ 143 µM)
34 | CCc1cccc2c(=O)c(C(=O)NCCCOC)c[nH]c12 | > 43.3
35 | O=c1cc(C(F)(F)F)[nH]c2c(OC(F)(F)F)cccc12 | > 44.6
36 | Cc1ccc(C(=O)CNc2cc(C)ccc2C)cc1 | < 0.5
37 | Cc1cccc(N2C(=O)C3C4C=CC(CC4)C3C2=O)c1 (stereo not drawn) | 33.5 (≈ 125 µM)
38 | COc1ccc(C(=O)CC(=O)Nc2ccc([N+](=O)[O-])cc2)cc1 | 2.6 (≈ 8.27 µM)
39 | O=C(Nc1ccc(S(=O)(=O)Nc2ccccn2)cc1)C(F)(F)F | > 51.8
40 | Cc1cccc(OCCC(=O)Nc2ccc(Cl)cc2F)c1 | < 0.7
41 | COCCNC(=S)N1CCN(S(=O)(=O)c2ccc(Cl)s2)CC1 | 11.4 (≈ 29.7 µM)
42 | CCC1CCCCN1CC(O)COCc1cccc(OC)c1 (stereo not drawn) | 31.4 (≈ 102 µM)
43 | Cn1c(=O)c2c(ncn2CC(=O)Nc2cc(S(=O)(=O)N3CCCCC3)ccc2O)n(C)c1=O | > 71.5
44 | Cc1cc(C)cc(OCC(=O)OCC(=O)Nc2cc(S(=O)(=O)N3CCOCC3)ccc2Cl)c1 | 41.6 (≈ 83.7 µM)
45 | Cc1nn(C)c(C)c1NS(=O)(=O)c1ccc(Cl)cc1 | > 45
46 | O=C(Nc1ccccc1N1CCOCC1)c1ccncc1 | > 42.5

Row | Compound | solubility kinetic [µg/mL]
47 | COc1cccc(C(=O)NCC(=O)OCC(=O)NC2CCCCC2)c1 | > 52.3
48 | O=[N+]([O-])c1ccc(Nc2nccc(Cl)n2)cc1 | 1.4 (≈ 5.59 µM)
49 | O=Cc1cc2cc3c(cc2nc1Cl)OCCO3 | 0.9 (≈ 3.61 µM)
50 | Cc1cccc(N(O)C(=O)Nc2cccc(Cl)c2)c1 | 10.2 (≈ 36.9 µM)
51 | Cc1c(C=O)c2ccccn2c1C(=O)c1ccc(F)cc1 | 6.5 (≈ 23.1 µM)
52 | CN(c1ccc(C(=O)NC2CCCC2)cc1)S(=O)(=O)c1ccccc1 | 48.9 (≈ 136 µM)
53 | Cc1ccc(S(=O)(=O)N2CCCCC2)cc1C(=O)OCC(=O)N1c2ccccc2NC(=O)C1(C)C | 3.2 (≈ 6.41 µM)
54 | CN(c1ccc(C(=O)Nc2cccnc2)cc1)S(=O)(=O)c1ccccc1 | > 55.1
55 | Cc1cc(S(=O)(=O)NCc2ccc3c(c2)OCO3)ccc1F | 46.8 (≈ 145 µM)
56 | Cc1cnc(=O)[nH]c1SCc1ccc(C(F)(F)F)cc1 | 5.1 (≈ 17 µM)
57 | Cc1ccc(Oc2ccc(C(F)(F)F)cc2[N+](=O)[O-])c([N+](=O)[O-])n1 | 7.2 (≈ 21 µM)
58 | N#Cc1c(-c2ccncc2)cc(-c2ccc(F)cc2)nc1N | 0.5 (≈ 1.72 µM)
59 | O=C(CCN=C1NS(=O)(=O)c2ccccc21)NCc1ccccc1F | > 54.2
60 | CSc1c(C#N)c(N)nc2sc(C(=O)c3ccccc3)c(N)c12 | 3.1 (≈ 9.11 µM)
61 | O=C(Nc1cccnc1)NC1CCCCC1 | > 32.9
62 | NS(=O)(=O)c1cnccc1Oc1cccc(Cl)c1 | > 42.7
63 | COC(=O)[C@H](C)NC(=O)NCc1ccc(S(N)(=O)=O)cc1 | > 47.3
64 | CC(C)(C)NC(=O)COc1ccc(S(=O)(=O)N2CCCC2)cc1 | > 51.1
65 | C=CCOc1c(Cl)cc(CNc2nccs2)cc1OC | 38.1 (≈ 123 µM)
66 | CCN(C(=O)COC(=O)c1ccc(Cl)cc1N)C1CCCCC1 | 2.7 (≈ 7.97 µM)
67 | Cc1ccc(NC(=O)CSCC(=O)O)cc1 | > 35.9

The next lines start with the values.

Row | solubility kinetic [µg/mL] | Compound
68 | 43.4 (≈ 128 µM) | O=C(NCCNC(=O)c1ccc(Cl)cc1Cl)c1ccccn1
69 | 22.7 (≈ 74.1 µM) | CSc1cccc(NC(=O)CNC(=O)C2CCCCC2)c1
70 | 1 (≈ 3.9 µM) | Nc1nc(Cl)cc(Oc2ccc(Cl)cc2)n1
71 | < 0.3 | Clc1nc(-c2ccccc2)ncc1Oc1ccccc1
72 | > 41.1 | CCOC(=O)CN1N=C(c2ccc(C)cc2)CCC1=O
73 | 39.3 (≈ 120 µM) | COc1ccccc1N1CCN(C(=S)Nc2ccccc2)CC1
74 | 2 (≈ 6.15 µM) | Cc1cc(=O)[nH]c(/N=C(\N)Nc2ccc(SC(F)F)cc2)n1
75 | 1 (≈ 3.36 µM) | CCCNC(=O)COC(=O)c1ccc(-c2ccccc2)cc1
76 | > 37.2 | NC(=O)CCS(=O)(=O)c1ccc(Cl)cc1
77 | 14.4 (≈ 33.5 µM) | COC(=O)CN(c1nc(C)c(Br)c(OC)n1)S(=O)(=O)c1ccccc1
78 | 11.6 (≈ 41.7 µM) | CNC(=O)c1c(NC(=O)c2ccco2)sc(C)c1C
79 | > 39.4 | O=[n+]1cc(-c2ccc(Cl)cc2)n([O-])c2c1CCC2
80 | > 48.4 | COc1ccc(CC(=O)Nc2cccc3ncccc23)cc1OC
81 | 2.1 (≈ 8.16 µM) | CC(C)c1ccc(NC(=O)C2CC3CCC2C3)cc1 (stereo not drawn)
82 | 13.6 (≈ 49.2 µM) | Cn1c(SCc2ccccc2)nc(N)c(N=O)c1=O
83 | > 59 | Cc1cccc(N2CC(C(=O)Nc3ccccc3N3CCOCC3)CC2=O)c1C (stereo not drawn)
84 | 3.8 (≈ 12.4 µM) | CCc1cccc(NC(=S)Nc2cccc3ccccc23)c1
85 | 46.1 (≈ 146 µM) | COc1cc(OC)cc(C(=O)NCc2ccc3c(c2)OCO3)c1
86 | > 41.9 | CC(C)C(OC(=O)c1ccco1)C(=O)NC1CCCC1 (stereo not drawn)
87 | > 50.6 | CCOc1ccc(CCN2CN(CC)CNC2=S)cc1OCC
88 | 31 (≈ 120 µM) | CNC(=O)COc1ccc2oc3c(c2c1)CCCC3
89 | > 49.7 | CCOC(=O)N1CCC2(CC1)C(C#N)=C(N)OC1=C2C(=O)CCC1
90 | > 44.8 | S=C1NCN(Cc2cccnc2)CN1Cc1ccccc1
91 | > 37.1 | CC(=O)C1=C(C)NC2=C(C(=O)CC(C)(C)C2)C1C (stereo not drawn)
92 | > 49.3 | CCOc1ccc(N2CC(C(=O)NCc3ccco3)CC2=O)cc1 (stereo not drawn)
93 | 30.9 (≈ 112 µM) | CCOC(=O)N1CCN(CCCc2ccccc2)CC1

Row | solubility kinetic [µg/mL] | Compound
94 | 45.2 (≈ 133 µM) | CCCN(Cc1cc2cc(OC)ccc2[nH]c1=O)C(=O)c1ccco1
95 | 34.2 (≈ 139 µM) | Cc1ccc(C(C)NC(=O)C2CCCC2)c(C)c1 (stereo not drawn)
96 | 2.8 (≈ 8.91 µM) | Cc1cc(C)cc(NC(=O)[C@@H](NC(=O)c2ccco2)C(C)C)c1
97 | 6.3 | COC(=O)c1ccccc1NC(=O)NCCc1ccccc1OC.Cl
98 | 39.1 (≈ 136 µM) | CCCCn1c(N)c(NCc2ccccc2)c(=O)[nH]c1=O
99 | 17.9 (≈ 107 µM) | CN(C)/C=C/C(=O)C(F)(F)F
100 | 7.9 (≈ 26.6 µM) | COc1ccc(NC(=O)c2cc3ccccc3o2)cc1OC
101 | 2.1 (≈ 5.81 µM) | O=C(COC(=O)/C=C/c1cccc([N+](=O)[O-])c1)Nc1cccnc1Cl
102 | > 26.6 | N#C/C(=C/c1cc[nH]c1)C(N)=S
103 | > 37.1 | CC1(N(O)C=C2C=CC(=O)C=C2)CCCCC1=O (stereo not drawn)
104 | 40.8 (≈ 112 µM) | CN(C(=O)c1c[nH]c(=O)cc1C(F)(F)F)c1ccc(Cl)c(Cl)c1
105 | 31.2 (≈ 96.8 µM) | CCN(Cc1ccccc1)C(=O)c1[nH]c2ccc(OC)cc2c1C
106 | > 47.7 | O=C(COC(=O)COc1ccc(Cl)cc1Cl)NC1CC1
107 | > 56 | COC(=O)CC1=C(C(=O)OC)[C@@H](c2ccccc2[N+](=O)[O-])C(C#N)=C(N)O1
108 | > 41 | CCS(=O)(=O)NCCNc1ccc([N+](=O)[O-])cc1
109 | > 50.9 | O=C(NCCC(=O)N1CCCCC1)c1ccc(Br)cc1
110 | < 0.1 | Nc1nc(NCC2CCCO2)nc(Nc2cccc(F)c2)c1[N+](=O)[O-] (stereo not drawn)
111 | > 47.2 | CC(CCc1ccccc1)NC(=O)COC(=O)c1cccn1C (stereo not drawn)
112 | > 44 | O=C(O)C1CCCCC1C(=O)NCCc1ccc(F)cc1 (stereo not drawn)
113 | 16.9 (≈ 57 µM) | CC(=O)Nc1ccc(Oc2ccc3c(c2)C(=O)NC3=O)cc1
114 | > 50.5 | CCC(=O)N(Cc1cc(=O)[nH]c2ccccc12)c1ccccc1OC
115 | 35.8 (≈ 115 µM) | Cc1ccc(C)c(N(CC(=O)N2CCCC2)S(C)(=O)=O)c1
116 | 35.4 (≈ 125 µM) | Cc1cnc(C(=O)Oc2cccc(Cl)c2Cl)cn1
117 | > 54.2 | CN1CCN(c2c(F)cc3c(=O)c(C(=O)[O-])cn4c3c2OCN4C)CC1
118 | 8.3 (≈ 28.5 µM) | Cc1noc(C)c1COC(=O)c1csc2c1CCCC2
